Read-outs that look alike come from different tables or passages of the source.
Key:
[1] = system: pancreatic cancer MIA PaCa-2 cells; assay: cells; conditions: for EC50: Homo sapiens, MIA PaCa-2, read-out: EC50, μM MIA PaCa-2; for improvement in anti-cancer activity: versus compound 4
Protocol: (§1) Fig 1 A, Structure of NSC130362. B, Dose response curve of NSC130362 in MIA PaCa-2 cells. Cells were pre-incubated with NSC130362 for 2 h followed by addition of ATO (5 μM) and incubation for an additional 24 h. At the end of the treatment, the ratio of dead cells was determined by a CellTiterGlo reagent.

[2] = system: human primary hepatocytes; conditions: for EC50: read-out: EC50, μM Hepatocytes ATO, in the presence of ATO (5 μM), SD does not exceed 10%; for times more toxic toward hepatocytes than compound 2: versus compound 2
Description: (§2) We selected hepatocytes as normal cells because hepatocytes are mediate toxicity to multiple drugs and are used as a standard to assess toxicity of drugs in vitro [28]. […] For comparison with the standard of care, doxorubicin was also included in this analysis.

[3] = system: human primary hepatocytes; assay: cells; conditions: Hepatocyte, read-out: EC50, μM Hepatocytes
Description: as §2

in vitro = conditions: human
Protocol: as §1

Compound | EC50 [1] | EC50 [3] | other results
O=C1C(Cl)=C(NC(CO)(CO)CO)C(=O)c2ccccc21 [compound 20] | > 90 µM | 47.8 µM | loss in anti-cancer activity ([1]; versus compound 13): approximately 50 fold; loss in toxicity to hepatocytes ([2]; versus compound 13): approximately 2 fold
CC1=CC(=O)c2ccccc2C1=O [compound 61, 3-methyl-1,4-NQ, reference compound] | 7.8 µM | 11.8 µM | selectivity ratio (in vitro): 10.4; improved anti-cancer activity ([1]; versus 1,4-NQ (compound 56)): 1.5 fold; times less toxic to hepatocytes [2]: approximately 5 times; EC50 [2]: 15.6 µM
CN(C)C1=C(Cl)C(=O)c2ccccc2C1=O [compound 14, 2-chloro-3-(dimethylamino)-1,4-NQ] | 7.2 µM | 10 µM | times more toxic toward hepatocytes than compound 2 [2]: approximately 2 times
O=C1C(Cl)=C(Nc2ccc(Cl)cc2)C(=O)c2ccccc21 [compound 43] | > 90 µM | > 90 µM | 
CNC1=C(Cl)C(=O)c2ccccc2C1=O [compound 2] | 38.6 µM | 41.1 µM | 
COCCCNC1=C(Cl)C(=O)c2ccccc2C1=O [compound 22] | 39 µM | 90 µM | decrease in anti-cancer activity ([1]; versus compound 21): 4 fold; increase in toxicity to hepatocytes ([2]; versus compound 4): approximately 3 fold
O=C1C(Cl)=C(N2CC2)C(=O)c2ccccc21 [compound 15, 2-chloro-3-(aziridin-1-yl)-1,4-NQ] | 2.3 µM | 2.6 µM | times more toxic toward hepatocytes than compound 2 [2]: ~6.5 times
CC(C)CNC1=CC(=O)c2ccccc2C1=O [compound 52] | > 90 µM | > 90 µM | 
CC(C)NC1=C(Cl)C(=O)c2ccccc2C1=O [compound 10] | 69 µM | > 90 µM | 
CC(=O)NC1=C(Cl)C(=O)c2ccccc2C1=O [compound 29] | 5.4 µM | 9.7 µM | 
O=C1C=C(NCCNCCO)C(=O)c2ccccc21 [compound 57] | > 90 µM | 83.2 µM | 
O=C1C(Cl)=C(Nc2cccc(Cl)c2)C(=O)c2ccccc21 [compound 44] | 7 µM | 5.3 µM | 
CCNC1=CC(=O)c2ccccc2C1=O [compound 49] | > 90 µM | > 90 µM | 
[N-]=[N+]=NC1=C(Cl)C(=O)c2ccccc2C1=O [compound 46] | 5.2 µM | 2.9 µM | 
CCCNC1=CC(=O)c2ccccc2C1=O [compound 50] | > 90 µM | > 90 µM | 
CCCCNC1=C(Cl)C(=O)c2ccccc2C1=O [compound 5] | > 90 µM | > 90 µM | 
CCN(CC)C1=CC(=O)c2ccccc2C1=O [compound 59] | 90 µM | 90 µM | 
NC1=CC(=O)c2ccccc2C1=O [compound 48, 3-amino-1,4-NQ] | 24.4 µM | 28.1 µM | increase in toxicity to hepatocytes ([2]; versus compound 1): approximately 3 fold
CCC(C)NC1=C(Cl)C(=O)c2ccccc2C1=O (centres unmarked) [compound 11] | > 90 µM | > 90 µM | 
O=C(CCl)NC1=C(Cl)C(=O)c2ccccc2C1=O [compound 33] | 7.9 µM | 25.4 µM | decrease in anti-cancer activity ([1]; versus compound 29): 2 fold

Compound | EC50 [1] | EC50 [3] | other results
COc1cccc2c1C(=O)c1c(O)c3c(c(O)c1C2=O)C[C@@](O)(C(=O)CO)C[C@@H]3O[C@H]1C[C@H](N)[C@H](O)[C@H](C)O1 [Doxorubicin, reference compound] | 0.7 µM | 10 µM | selectivity ratio (in vitro): 3.5; selective cytotoxicity index, times less ([1]; human): approximately 25 times
CCC(=O)NC1=C(Cl)C(=O)c2ccccc2C1=O [compound 30] | 5.7 µM | 3.6 µM | 
O=C1C(Cl)=C(Nc2ccc(O)cc2)C(=O)c2ccccc21 [compound 45] | 2.5 µM | 2.6 µM | 
CCCCCCNC1=C(Cl)C(=O)c2ccccc2C1=O [compound 7] | 26.1 µM | > 90 µM | 
CN(C)CCCNC1=C(Cl)C(=O)c2ccccc2C1=O [compound 27] | 0.9 µM | 24.1 µM | improvement in anti-cancer activity [1]: 10.8 fold; increase in toxicity to hepatocytes ([2]; versus compound 4): 9.2 fold
O=C1C(Cl)=C(NCCCN(CCO)CCO)C(=O)c2ccccc21 [compound 28] | 9.2 µM | 48.5 µM | improvement in anti-cancer activity [1]: 4.6 fold; increase in toxicity to hepatocytes ([2]; versus compound 4): 3.0 fold
O=C1C(Cl)=C(Nc2ccc(F)cc2)C(=O)c2ccccc21 [compound 42] | 3.2 µM | 10 µM | 
CC(C)OCCCNC1=C(Cl)C(=O)c2ccccc2C1=O [compound 25] | 82.1 µM | 60.8 µM | 
CC1CCCC(C)N1C1=C(Cl)C(=O)c2ccccc2C1=O (centres unmarked) [compound 47] | 7 µM | 9 µM | 
NC1=C(Br)C(=O)c2ncccc2C1=O [compound 65] | 1.8 µM | 8.6 µM | EC50 [2]: 4.1 µM
CCCCCCCCNC1=C(Cl)C(=O)c2ccccc2C1=O [compound 9] | > 90 µM | > 90 µM | 
O=C1C(Cl)=C(NCCCO)C(=O)c2ccccc21 [compound 18] | 27.5 µM | 75.3 µM | increase in toxicity to hepatocytes ([2]; versus compound 17): approximately 3 fold
CCOCCNC1=C(Cl)C(=O)c2ccccc2C1=O [compound 24] | 55.4 µM | 67.8 µM | 
O=C(O)CNC1=C(Cl)C(=O)c2ccccc2C1=O [compound 34] | 18.1 µM | 11.8 µM | 
CCCCNC1=CC(=O)c2ccccc2C1=O [compound 51] | > 90 µM | > 90 µM | 
CCCCCNC1=C(Cl)C(=O)c2ccccc2C1=O [compound 6] | > 90 µM | > 90 µM | 
CCCNC1=C(Cl)C(=O)c2ccccc2C1=O [compound 4] | 90 µM | 90 µM | reduction of anti-cancer activity ([1]; versus compound 3): more than 3 fold
CC(O)CNC1=C(Cl)C(=O)c2ccccc2C1=O (centres unmarked) [compound 19] | 24.9 µM |  | increase in toxicity to hepatocytes ([2]; versus compound 17): approximately 3 fold
O=C1C=C(N2CCCCC2)C(=O)c2ccccc21 [compound 58] | 52 µM | 90 µM | 
Cc1ccc(NC2=C(Cl)C(=O)c3ccccc3C2=O)cc1 [compound 41] | 2.5 µM | 8.4 µM | 

Reference: PMC6433232, “Targeting mitochondria in cancer therapy could provide a basis for the selective anti-cancer activity” (PLoS ONE, 2019)
